From paper PMC13244789, “Cutibacterium Adaptation to Life on Humans Provides a Potential C acnes Infection Biomarker” (The Journal of investigative dermatology, 2025)

Molecular target: T1, RoxP_1 (8His-TEV-RoxP_1, RoxP_1-tagless) (Cutibacterium acnes, UniProt Q6A6F6)
T1 construct: gene PPA1939; mature secreted protein; E. coli host, PelB signal peptide
Test: native gel shift (Coomassie, TCE tryptophan protection)
Assay type: binding
Details: HSB pH 7.4; weaker than hemin

T1 sequence (Q6A6F6 entry or part of it): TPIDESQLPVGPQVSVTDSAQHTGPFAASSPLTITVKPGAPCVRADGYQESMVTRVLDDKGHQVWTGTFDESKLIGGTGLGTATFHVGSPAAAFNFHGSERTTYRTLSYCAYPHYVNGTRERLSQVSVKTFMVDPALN

Structure (SMILES): C=CC1=C(C)c2cc3[nH]c(cc4nc(cc5[nH]c(cc1n2)c(C)c5CCC(=O)O)C(CCC(=O)O)=C4C)c(C)c3C=C [protoporphyrin IX]
- native gel shift (Coomassie, TCE tryptophan protection): porphyrins revealed weaker binding to PPIX but no detectable binding to coproporphyrin III
